Assay results reported in patent publication US4220577A, “Iodopropargyl pyridyl and picolinyl ethers and thioethers as paint fungicides” (Givaudan Corporation, priority 1979, dated 1980).
Values after ≈ are worked out from the molar mass of the structure shown. One block for each molecule: values may come before it.

How the values were obtained:
[1] = system: Aureobasidium pullulans (strain 2); test: Antifungal activity of painted birch blades after exposure to heat and light; assay type: cell-based; set-up: key to Surface Growth: 0: No growth; 1: Slight growth; 2: Moderate growth; 3: Heavy growth; details: after light (300-400 nm) and heat (40° C.) four weeks
Experimental: Successful paint fungicides must be stable when exposed to the elements such as heat and light. Such stability was tested in the laboratory by exposing painted sticks to heat and light. The compounds of this invention were incorporated into an exterior vinyl acetate latex paint as described in Example XXI. Birch blades (tongue depressors) were painted (two coats) and continuously exposed to light (wavelength 300-400 nm) and heat (40° C.) for four consecutive weeks. At the end of the exposure time, one-inch squares of the painted birch blades were cut and tested according to the procedure of Example XXI, using strain 2.

[2] = system: Staphylococcus aureus; test: 5-fold serial dilution test in agar, MIC, B1; assay type: cell-based; details: 37° C., 48 hours, read-out: Minimum Inhibitory Concentration Range
Experimental: (§1) Antibacterial and antifungal activity were evaluated by a 5-fold serial dilution test in agar. In this test, compounds were prepared as 6% solutions in dimethylformamide or ethanol. The 6% solution was then 5-fold serially diluted in test tubes to give the desired concentrations when mixed with agar and poured into sterile Petri dishes. Trypticase glucose extract agar was used for the bacterial testing; mildew glucose agar for the fungal testing. The bacterial plates were spot inoculated with 24-hour nutrient broth cultures and incubated at 37° C. for 48 hours. The fungal plates were spot inoculated with spore suspensions and incubated at 28° C. for seven days. At the end of the incubation periods, all plates were examined for growth. The minimum inhibitory concentration (MIC) for each organism is expressed in Table I. In the ranges presented, growth is observed only at the lower concentration.
B1 Staphylococcus aureus

[3] = system: Escherichia coli; test: 5-fold serial dilution test in agar, MIC, B2; assay type: cell-based; details: 37° C., 48 hours, read-out: Minimum Inhibitory Concentration Range
Experimental: as §1

[4] = system: Pseudomonas aeruginosa; test: 5-fold serial dilution test in agar, MIC, B3; assay type: cell-based; details: 37° C., 48 hours, read-out: Minimum Inhibitory Concentration Range
Experimental: as §1
B3 Pseudomonas aeruginosa

[5] = system: Proteus vulgaris; test: 5-fold serial dilution test in agar, MIC, B4; assay type: cell-based; details: 37° C., 48 hours, read-out: Minimum Inhibitory Concentration Range
Experimental: as §1

[6] = system: Bacillus subtilis; test: 5-fold serial dilution test in agar, MIC, B5; assay type: cell-based; details: 37° C., 48 hours, read-out: Minimum Inhibitory Concentration Range
Experimental: as §1
B5 Bacillus subtilis 4 3 μg/ml

[7] = system: Aspergillus niger; test: 5-fold serial dilution test in agar, MIC, F1; assay type: cell-based; details: 168 h, 28° C., seven days, read-out: Minimum Inhibitory Concentration Range
Experimental: as §1

[8] = system: Aspergillus oryzae; test: 5-fold serial dilution test in agar, MIC, F2; assay type: cell-based; details: 168 h, 28° C., seven days, read-out: Minimum Inhibitory Concentration Range
Experimental: as §1

[9] = system: Penicillium piscarium; test: 5-fold serial dilution test in agar, MIC, F3; assay type: cell-based; details: 168 h, 28° C., seven days, read-out: Minimum Inhibitory Concentration Range
Experimental: as §1
F3 Penicillium piscarium

[10] = system: Aureobasidium pullulans; test: 5-fold serial dilution test in agar, MIC, F4; assay type: cell-based; details: 168 h, 28° C., seven days, read-out: Minimum Inhibitory Concentration Range
Experimental: as §1
F4 Aureobasidium pullulans

[11] = system: Aureobasidium pullulans (strain 1); test: Antifungal activity on painted surfaces, strain 1; assay type: cell-based; set-up: key to Surface Growth: 0: No growth; 1: Slight growth; 2: Moderate growth; 3: Heavy growth; details: Strain 1, three weeks
Experimental: (§2) Any antifungal agent which can be used to prevent mildew on painted surfaces must be effective against Aureobasidium pullulans, the organism which is primarily responsible for mildew on painted surfaces. The effectiveness of the novel compounds was tested by incorporating the compound into an exterior latex paint, applying the paint to a surface, and testing the ability of the painted surface to prevent the growth of Aureobasidium pullulans. The tests were run as described below. The novel compounds were incorporated into an exterior vinyl acetate latex paint by mulling the compound into the paint. The compounds were tested in the paints at levels of 0.25% and 0.5%. One coat of this paint was applied to each side of a piece of Whatman #30 filter paper. Two one-inch squares were cut from the filter paper. Each square was centered on the agar surface of separate Petri dishes containing malt agar. One square was inoculated with a suspension of Aureobasidium pullulans (strain 1) which was an in-house strain used for routine antimicrobial testing. The second square was inoculated with a suspension of Aureobasidium pullulans (strain 2) which was grown from a culture obtained from the surface of a mildew infested panel. Squares painted with the same exterior vinyl acetate latex paint, but without the novel compounds of this invention, were run in parallel. The Petri dishes were then incubated at 27° C. and at greater than 90% humidity for a three week period and observed for zones of inhibition and surface growth.

[12] = system: Aureobasidium pullulans (strain 2); test: Antifungal activity on painted surfaces, strain 2; assay type: cell-based; set-up: key to Surface Growth: 0: No growth; 1: Slight growth; 2: Moderate growth; 3: Heavy growth; key to Zone of Inhibition: 0: no zone; 1-5 mm; 2: 6-10 mm; 3: 11-15 mm; 4: 16-20 mm; 5: >20 mm; details: Strain 2, three weeks
Experimental: as §2

[13] = system: mildew; test: Outdoor field test of painted pine panels; details: Paint B (Acrylic latex-alkyd modified), .5%
Description: A number of the compounds were field tested in various latex paints. Pine panels (6"×12"×1/2") were given two coats of paint and, after drying, were exposed at an outdoor location subject to high heat and humidity levels. Paints containing the novel componds of this invention were compared with those containing the commercial mecurial mildewcide phenyl mecuric acetate (PMA), a commercial non-mercurial mildewcide 2-n-octyl-4-isothiazolin-3-one and 3-iodo-2-propynyloxybenzene.

[14] = 0.25% in vinyl acetate latex paint
[15] = 0.5% in vinyl acetate latex paint

Structure (SMILES): Cc1ccc(OCC#CI)cn1 [drawing 20]
Surface Growth ([1]; 0.25%): 0

MIC [2]: > 1920 µg/mL
MIC [3]: > 1920 µg/mL
MIC [4]: > 1920 µg/mL
MIC [5]: > 1920 µg/mL
MIC [6]: > 1920 µg/mL
MIC [7]: < 0.03 µg/mL
MIC [8]: < 0.03 µg/mL
MIC [9]: 0.03 to 0.12 µg/mL (≈ 0.11 to 0.439 µM)
MIC [10]: < 0.03 µg/mL
Structure (SMILES): Cc1ccc(OCC#CI)cn1 [drawing 3]

Structure (SMILES): IC#CCSc1ccncc1 [drawing 18]
Surface Growth [11, 14]: 0
Surface Growth [11, 15]: 0
Zone of Inhibition [11, 15]: 1 (1-5 mm)
Surface Growth [12, 14]: 0
Zone of Inhibition [12, 14]: 0
Surface Growth [12, 15]: 0
Zone of Inhibition [12, 15]: 0

Structure (SMILES): IC#CCOc1cccnc1 [drawing 19]
Surface Growth ([1]; 0.25%): 0
Surface Growth ([1]; 0.5%): 0
Zone of Inhibition ([1]; 0.5%): 1 (1-5 mm)

Structure (SMILES): IC#CCOc1cccnc1 [drawing 11]
Surface Growth [11, 14]: 0
Zone of Inhibition [11, 14]: 3 (11-15 mm)
Surface Growth [11, 15]: 0
Zone of Inhibition [11, 15]: 3 (11-15 mm)

Structure (SMILES): IC#CCOc1cccnc1 [Compound 1, 3-(3-iodo-2-propynyloxy)pyridine]
Panel Scoring ([13]; month 5): 8
Panel Scoring ([13]; month 6): 8

Structure (SMILES): IC#CCOc1ccncc1 [drawing 26]
Surface Growth ([1]; 0.25%): 2
Surface Growth ([1]; 0.5%): 2

Structure (SMILES): Clc1ncccc1OCC#CI [drawing 13]
Surface Growth [11, 14]: 0
Zone of Inhibition [11, 14]: 2 (6-10 mm)
Surface Growth [11, 15]: 0
Zone of Inhibition [11, 15]: 3 (11-15 mm)
Surface Growth [12, 14]: 0
Zone of Inhibition [12, 14]: 1 (1-5 mm)
Surface Growth [12, 15]: 0
Zone of Inhibition [12, 15]: 2 (6-10 mm)

Structure (SMILES): Cc1ccc(OCC#CI)cn1 [drawing 12]
Surface Growth [11, 14]: 0
Zone of Inhibition [11, 14]: 2 (6-10 mm)
Surface Growth [11, 15]: 0
Zone of Inhibition [11, 15]: 2 (6-10 mm)
Surface Growth [12, 14]: 0
Zone of Inhibition [12, 14]: 1 (1-5 mm)
Surface Growth [12, 15]: 0
Zone of Inhibition [12, 15]: 2 (6-10 mm)

MIC [2]: 3 to 15 µg/mL (≈ 10.2 to 51.1 µM)
MIC [3]: 15 to 76 µg/mL (≈ 51.1 to 259 µM)
MIC [4]: > 1920 µg/mL
MIC [5]: 3 to 15 µg/mL (≈ 10.2 to 51.1 µM)
MIC [6]: 3 to 15 µg/mL (≈ 10.2 to 51.1 µM)
MIC [7]: < 0.03 µg/mL
MIC [8]: 0.03 to 0.12 µg/mL (≈ 0.102 to 0.409 µM)
MIC [9]: 0.12 to 0.6 µg/mL (≈ 0.409 to 2.04 µM)
MIC [10]: 0.12 to 0.6 µg/mL (≈ 0.409 to 2.04 µM)
Structure (SMILES): Clc1ncccc1OCC#CI [drawing 4]

Structure (SMILES): IC#CCOc1ccncc1 [drawing 17]
Surface Growth [11, 15]: 0
Zone of Inhibition [11, 15]: 2 (6-10 mm)
Surface Growth [12, 15]: 0
Zone of Inhibition [12, 15]: 1 (1-5 mm)

MIC [2]: 384 to 1920 µg/mL (≈ 1480 to 7410 µM)
MIC [3]: 384 to 1920 µg/mL (≈ 1480 to 7410 µM)
MIC [4]: > 1920 µg/mL
MIC [5]: 76 to 384 µg/mL (≈ 293 to 1480 µM)
MIC [6]: 3 to 15 µg/mL (≈ 11.6 to 57.9 µM)
MIC [7]: < 0.03 µg/mL
MIC [8]: 0.03 to 0.12 µg/mL (≈ 0.116 to 0.463 µM)
MIC [9]: 0.03 to 0.12 µg/mL (≈ 0.116 to 0.463 µM)
MIC [10]: 0.12 to 0.6 µg/mL (≈ 0.463 to 2.32 µM)
Structure (SMILES): IC#CCOc1ccncc1 [drawing 9]

Structure (SMILES): IC#CCSc1cccnc1 [drawing 15]
Surface Growth [11, 14]: 0
Zone of Inhibition [11, 14]: 2 (6-10 mm)
Surface Growth [11, 15]: 0
Zone of Inhibition [11, 15]: 3 (11-15 mm)
Surface Growth [12, 14]: 0
Zone of Inhibition [12, 14]: 0
Surface Growth [12, 15]: 0
Zone of Inhibition [12, 15]: 2 (6-10 mm)

MIC [2]: 384 to 1920 µg/mL (≈ 1250 to 6240 µM)
MIC [3]: > 1920 µg/mL
MIC [4]: > 1920 µg/mL
MIC [5]: > 1920 µg/mL
MIC [6]: 15 to 76 µg/mL (≈ 48.8 to 247 µM)
MIC [7]: < 0.03 µg/mL
MIC [8]: 0.03 to 0.12 µg/mL (≈ 0.0976 to 0.39 µM)
MIC [9]: 0.12 to 0.6 µg/mL (≈ 0.39 to 1.95 µM)
MIC [10]: 0.03 to 0.12 µg/mL (≈ 0.0976 to 0.39 µM)
Structure (SMILES): Cc1ccc(OCC#CI)c(Cl)n1 [drawing 5]
